Source: ChEMBL document CHEMBL5143680, “Cytotoxic Bromine- and Iodine-Containing Cytochalasins Produced by the Mangrove Endophytic Fungus Phomopsis sp. QYM-13 Using the OSMAC Approach” (J Nat Prod, 2022)

Assays:
MDA-MB-435 = assay: Cytotoxicity against human MDA-MB-435 cells measured after 72 hrs by MTT assay; format: functional, cell-based; conditions: MDA-MB-435, 72 h
HepG2 = assay: Cytotoxicity against human HepG2 cells measured after 72 hrs by MTT assay; format: functional, cell-based; conditions: HepG2, 72 h
A549 = assay: Cytotoxicity against human A549 cells measured after 72 hrs by MTT assay; format: functional, cell-based; conditions: A549, 72 h
MDA-MB-231 = assay: Cytotoxicity against human MDA-MB-231 cells measured after 72 hrs by MTT assay; format: functional, cell-based; conditions: MDA-MB-231, 72 h
SNB-19 = assay: Cytotoxicity against human SNB-19 cells measured after 72 hrs by MTT assay; format: functional, cell-based; conditions: SNB-19, 72 h
[1] = Cytotoxicity against African green monkey Vero cells measured after 72 hrs by MTT assay; format: toxicity, cell-based; conditions: African green monkey (Chlorocebus sabaeus)

Row | SMILES | IC50 (MDA-MB-435) [µM] | IC50 (HepG2) [µM] | IC50 (A549) [µM] | IC50 (MDA-MB-231) [µM] | IC50 (SNB-19) [µM] | IC50 at 72 h [1] [µM]
1 | C=C1[C@@H](C)[C@H]2[C@H](Cc3ccccc3)NC(=O)[C@]23[C@H](OC(C)=O)[C@@H]2O[C@H]2[C@](C)(O)C[C@@H](C)C/C=C/[C@H]3[C@@H]1O | 42 | > 50 | > 50 | > 50 | > 50 | > 50
2 | CC(=O)O[C@@H]1/C=C/[C@](C)(O)C[C@@H](C)C/C=C/[C@H]2C=C(C)[C@@H](C)[C@H]3[C@H](Cc4ccccc4)NC(=O)[C@]321 | 34 | > 50 | > 50 | > 50 | > 50 | > 50
3 | C=C1/C=C/[C@@H](OC(C)=O)[C@@]23C(=O)N[C@@H](Cc4ccccc4)[C@@H]2[C@H](C)C(=C)[C@@H](O)[C@@H]3/C=C/C[C@H](C)C1 | 11 | > 50 | > 50 | 35 | 16 | 14
4 | CC1=C[C@@H]2/C=C/C[C@H](C)C[C@H](C)[C@@H]3O[C@H]3C(=O)[C@]23C(=O)N[C@@H](Cc2ccccc2)[C@@H]3[C@@H]1C | 44 | > 50 | > 50 | > 50 | > 50 | > 50
5 | C=C1[C@@H](C)[C@H]2[C@H](Cc3ccccc3)NC(=O)[C@]23[C@H](OC(C)=O)/C=C/C(C)=C\[C@@H](C)C/C=C/[C@H]3[C@@H]1O | 12 | > 50 | > 50 | 45 | 42 | 25
6 | CC1=C[C@@H]2/C=C/C[C@H](C)C[C@@](C)(O)/C=C/[C@@H](O)[C@]23C(=O)N[C@@H](Cc2ccccc2)[C@@H]3[C@@H]1C | 38 | > 50 | 38 | > 50 | > 50 | 44
7 | C=C1[C@@H](C)[C@H]2[C@H](Cc3ccccc3)NC(=O)[C@@]23[C@@H]([C@@H]2[C@H](/C=C(/C)C[C@@H](C)C[C@H]2Br)[C@H]3OC(C)=O)[C@@H]1O | 7.4 | > 50 | > 50 | 44 | > 50 | 18
8 | C=C1[C@@H](C)[C@H]2[C@H](Cc3ccccc3)NC(=O)[C@]23[C@H](O)/C=C/[C@](C)(O)C[C@@H](C)C/C=C/[C@H]3[C@@H]1O | 4.9 | > 50 | > 50 | 31 | 6.8 | > 50
9 | C=C1[C@@H](C)[C@H]2[C@H](Cc3ccccc3)NC(=O)[C@@]23[C@H]2[C@@H]4[C@H](C(C)=C[C@@H](C)C[C@H]4O[C@H]12)[C@H]3OC(C)=O | 36 | > 50 | > 50 | > 50 | > 50 | 34
10 | CC1=C[C@@H]2/C=C/C[C@H](C)C[C@@](C)(O)[C@@H]3O[C@H]3C(=O)[C@]23C(=O)N[C@@H](Cc2ccccc2)[C@@H]3[C@@H]1C | 32 | > 50 | 28 | 11 | > 50 | 29
11 | CC(=O)O[C@@H]1/C=C/[C@](C)(O)C[C@@H](C)C/C=C/[C@H]2C=C(C(=O)O)[C@@H](C)[C@H]3[C@H](Cc4ccccc4)NC(=O)[C@]321 | > 50 | > 50 | > 50 | > 50 | > 50 | > 50
12 | C=C1[C@@H](C)[C@H]2[C@H](Cc3ccccc3)NC(=O)[C@@]23[C@H]2[C@@H]4[C@H](C(C)=C[C@@H](C)C[C@H]4O[C@H]12)[C@@H](I)[C@H]3O | > 50 | > 50 | > 50 | > 50 | > 50 | 39
13 | CC(=O)O[C@@H]1/C=C/[C@](C)(O)C[C@@H](C)C/C=C/[C@H]2C=C(CO)[C@@H](C)[C@H]3[C@H](Cc4ccccc4)NC(=O)[C@]321 | 8.2 | > 50 | 38 | 42 | 6.9 | 22
14 | C=C1[C@@H](C)[C@H]2[C@H](Cc3ccccc3)NC(=O)[C@]23[C@H](OC(C)=O)/C=C/[C@](C)(O)C[C@@H](C)C/C=C/[C@H]3[C@@H]1O | 0.2 | > 50 | > 50 | 42 | 26 | 40
15 | C[C@H]1C/C=C/[C@H]2C=C(CO)[C@@H](C)[C@H]3[C@H](Cc4ccccc4)NC(=O)[C@]32[C@H](O)/C=C/[C@](C)(O)C1 | 25 | > 50 | > 50 | > 50 | > 50 | > 50
16 | C=C1[C@@H](C)[C@H]2[C@H](Cc3ccccc3)NC(=O)[C@@]23[C@H]2[C@@H]4[C@H](C(C)=C[C@@H](C)C[C@H]4O[C@H]12)[C@H]3O | > 50 | > 50 | > 50 | > 50 | > 50 | > 50
17 | C=C1[C@@H](C)[C@H]2[C@H](Cc3ccccc3)NC(=O)[C@@]23[C@@H]([C@@H]2[C@H](/C=C(/C)C[C@@H](C)C[C@H]2I)[C@H]3OC(C)=O)[C@@H]1O | 47 | 47 | 33 | 43 | > 50 | 29
18 | C=C1[C@@H](C)[C@H]2[C@H](Cc3ccccc3)NC(=O)[C@@]23[C@@H]([C@@H]2[C@H](/C=C(/C)C[C@@H](C)C[C@H]2O)[C@H]3OC(C)=O)[C@@H]1O | 45 | > 50 | > 50 | > 50 | > 50 | > 50
